Legend:
[1] = target: T1, Phospho-EGFR (Tyr1068) in H1975 cells (Homo sapiens, UniProt P00533, L858R/T790M); assay: HTRF pEGFR/total EGFR in H1975 cells; format: cell-based; details: ratio pEGFR/total EGFR, compound 3 hours
T1 construct: host or cells: H1975
How it was run: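 H1975 cells (EGFR L858R/T790M) treated 3 h with compound in 0.1% DMSO, in duplicate, 24 h after plating. Lysates assayed by HTRF for pEGFR (Tyr1068) and total EGFR at 665/620 nm; values are pEGFR/total EGFR ratio as percent of 0 μM control.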

[2] = target: T2, Phospho-EGFR (Tyr1068) in H1975 C797S cells (CRISPR-edited EGFR C797S) (Homo sapiens, UniProt P00533, C797S/L858R/T790M); assay: HTRF pEGFR/total EGFR in H1975 C797S cells; format: cell-based; details: ratio pEGFR/total EGFR, compound 3 hours
T2 construct: host or cells: H1975 C797S (CRISPR-edited)
How it was run: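 Adhered H1975 C797S cells got compound for 3 h in duplicate at 0.1% DMSO final, then were lysed 30 min at room temperature. HTRF kits quantified phospho-EGFR (Tyr1068) and total EGFR (665/620 nm); results are pEGFR/total EGFR ratio as percent of 0 μM control.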

[3] = target: T3, Phospho-EGFR (Tyr1068) in A431 cells (Homo sapiens, UniProt P00533); assay: HTRF pEGFR/total EGFR in A431 cells with EGF stimulation; format: cell-based; details: ratio pEGFR/total EGFR, compound 2.5 hours then 100 ng/ml EGF 30 mins
T3 construct: endogenous in cells; host or cells: A431
How it was run: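 A431 cells were plated at 20,000 per well, allowed 24 h to adhere, then given compound for 2.5 h (0.1% DMSO final). They were then stimulated with 100 ng/ml EGF for 30 min and lysed. HTRF measured Tyr1068-phospho and total EGFR at 665/620 nm, with pEGFR/total EGFR expressed as % of the 0 μM control.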

[4] = target: CtermHisTag-mEGFR Wild type (Homo sapiens, UniProt P00533); assay: biochemical
Sequence of CtermHisTag-mEGFR Wild type (P00533 whole entry): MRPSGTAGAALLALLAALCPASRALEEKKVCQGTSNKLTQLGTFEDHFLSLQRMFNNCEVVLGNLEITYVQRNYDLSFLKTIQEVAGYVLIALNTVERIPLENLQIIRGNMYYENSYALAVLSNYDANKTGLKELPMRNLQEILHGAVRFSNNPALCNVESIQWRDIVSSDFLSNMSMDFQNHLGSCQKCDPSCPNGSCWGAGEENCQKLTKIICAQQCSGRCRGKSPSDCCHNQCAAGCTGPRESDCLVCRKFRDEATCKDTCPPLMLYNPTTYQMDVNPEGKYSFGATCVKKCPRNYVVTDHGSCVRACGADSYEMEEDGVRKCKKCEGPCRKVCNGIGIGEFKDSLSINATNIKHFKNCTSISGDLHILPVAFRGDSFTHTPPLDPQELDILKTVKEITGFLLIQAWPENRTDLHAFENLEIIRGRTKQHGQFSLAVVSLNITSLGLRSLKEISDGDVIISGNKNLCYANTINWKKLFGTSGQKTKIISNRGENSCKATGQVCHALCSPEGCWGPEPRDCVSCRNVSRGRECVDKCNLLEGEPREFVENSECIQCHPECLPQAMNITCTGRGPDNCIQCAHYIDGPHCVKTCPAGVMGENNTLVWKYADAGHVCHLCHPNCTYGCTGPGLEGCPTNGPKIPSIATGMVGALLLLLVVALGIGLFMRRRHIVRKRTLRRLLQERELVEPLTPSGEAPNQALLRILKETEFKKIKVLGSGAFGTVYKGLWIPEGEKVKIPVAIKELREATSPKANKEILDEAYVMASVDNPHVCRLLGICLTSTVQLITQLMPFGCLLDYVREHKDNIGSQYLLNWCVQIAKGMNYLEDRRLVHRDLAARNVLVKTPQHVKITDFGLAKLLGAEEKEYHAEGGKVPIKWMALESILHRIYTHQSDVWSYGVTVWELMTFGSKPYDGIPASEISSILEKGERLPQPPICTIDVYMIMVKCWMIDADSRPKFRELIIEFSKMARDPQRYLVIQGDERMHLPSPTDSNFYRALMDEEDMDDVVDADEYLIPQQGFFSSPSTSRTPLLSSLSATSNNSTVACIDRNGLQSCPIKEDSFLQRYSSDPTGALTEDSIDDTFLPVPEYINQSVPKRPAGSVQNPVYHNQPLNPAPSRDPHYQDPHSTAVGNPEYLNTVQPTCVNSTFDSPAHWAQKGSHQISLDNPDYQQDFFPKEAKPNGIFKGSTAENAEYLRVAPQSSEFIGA

T1 sequence (P00533 25-1210 T790M/L858R): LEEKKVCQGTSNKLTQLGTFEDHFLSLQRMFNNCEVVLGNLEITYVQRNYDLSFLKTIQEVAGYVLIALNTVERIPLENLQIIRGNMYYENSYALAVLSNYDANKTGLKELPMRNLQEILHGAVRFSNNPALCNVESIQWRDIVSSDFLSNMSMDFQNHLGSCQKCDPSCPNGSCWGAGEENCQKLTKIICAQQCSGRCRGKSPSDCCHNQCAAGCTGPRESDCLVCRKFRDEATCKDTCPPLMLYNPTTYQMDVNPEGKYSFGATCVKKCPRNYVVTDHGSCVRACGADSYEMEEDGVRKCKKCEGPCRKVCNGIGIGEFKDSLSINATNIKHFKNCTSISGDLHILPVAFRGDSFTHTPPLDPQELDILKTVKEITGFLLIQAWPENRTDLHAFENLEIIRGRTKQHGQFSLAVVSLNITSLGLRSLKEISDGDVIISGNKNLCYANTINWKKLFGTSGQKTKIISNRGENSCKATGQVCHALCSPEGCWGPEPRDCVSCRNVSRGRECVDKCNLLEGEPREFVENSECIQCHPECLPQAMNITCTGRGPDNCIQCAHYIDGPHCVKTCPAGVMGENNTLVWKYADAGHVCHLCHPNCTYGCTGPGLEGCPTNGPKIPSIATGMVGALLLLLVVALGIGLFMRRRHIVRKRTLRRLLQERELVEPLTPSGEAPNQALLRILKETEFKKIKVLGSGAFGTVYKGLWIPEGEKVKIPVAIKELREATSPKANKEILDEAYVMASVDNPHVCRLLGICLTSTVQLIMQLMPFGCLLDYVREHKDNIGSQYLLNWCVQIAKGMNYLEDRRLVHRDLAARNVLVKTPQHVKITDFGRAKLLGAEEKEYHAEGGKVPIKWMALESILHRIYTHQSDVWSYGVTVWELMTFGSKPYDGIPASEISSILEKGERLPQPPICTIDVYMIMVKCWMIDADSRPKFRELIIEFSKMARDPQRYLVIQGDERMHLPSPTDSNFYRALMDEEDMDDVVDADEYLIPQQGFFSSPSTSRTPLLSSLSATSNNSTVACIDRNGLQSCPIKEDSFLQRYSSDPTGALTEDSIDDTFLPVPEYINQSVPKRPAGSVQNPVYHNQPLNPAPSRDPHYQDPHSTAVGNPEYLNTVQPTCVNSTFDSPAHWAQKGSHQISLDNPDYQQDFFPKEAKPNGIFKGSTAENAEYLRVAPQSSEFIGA
T2 sequence (P00533 25-1210 T790M/C797S/L858R): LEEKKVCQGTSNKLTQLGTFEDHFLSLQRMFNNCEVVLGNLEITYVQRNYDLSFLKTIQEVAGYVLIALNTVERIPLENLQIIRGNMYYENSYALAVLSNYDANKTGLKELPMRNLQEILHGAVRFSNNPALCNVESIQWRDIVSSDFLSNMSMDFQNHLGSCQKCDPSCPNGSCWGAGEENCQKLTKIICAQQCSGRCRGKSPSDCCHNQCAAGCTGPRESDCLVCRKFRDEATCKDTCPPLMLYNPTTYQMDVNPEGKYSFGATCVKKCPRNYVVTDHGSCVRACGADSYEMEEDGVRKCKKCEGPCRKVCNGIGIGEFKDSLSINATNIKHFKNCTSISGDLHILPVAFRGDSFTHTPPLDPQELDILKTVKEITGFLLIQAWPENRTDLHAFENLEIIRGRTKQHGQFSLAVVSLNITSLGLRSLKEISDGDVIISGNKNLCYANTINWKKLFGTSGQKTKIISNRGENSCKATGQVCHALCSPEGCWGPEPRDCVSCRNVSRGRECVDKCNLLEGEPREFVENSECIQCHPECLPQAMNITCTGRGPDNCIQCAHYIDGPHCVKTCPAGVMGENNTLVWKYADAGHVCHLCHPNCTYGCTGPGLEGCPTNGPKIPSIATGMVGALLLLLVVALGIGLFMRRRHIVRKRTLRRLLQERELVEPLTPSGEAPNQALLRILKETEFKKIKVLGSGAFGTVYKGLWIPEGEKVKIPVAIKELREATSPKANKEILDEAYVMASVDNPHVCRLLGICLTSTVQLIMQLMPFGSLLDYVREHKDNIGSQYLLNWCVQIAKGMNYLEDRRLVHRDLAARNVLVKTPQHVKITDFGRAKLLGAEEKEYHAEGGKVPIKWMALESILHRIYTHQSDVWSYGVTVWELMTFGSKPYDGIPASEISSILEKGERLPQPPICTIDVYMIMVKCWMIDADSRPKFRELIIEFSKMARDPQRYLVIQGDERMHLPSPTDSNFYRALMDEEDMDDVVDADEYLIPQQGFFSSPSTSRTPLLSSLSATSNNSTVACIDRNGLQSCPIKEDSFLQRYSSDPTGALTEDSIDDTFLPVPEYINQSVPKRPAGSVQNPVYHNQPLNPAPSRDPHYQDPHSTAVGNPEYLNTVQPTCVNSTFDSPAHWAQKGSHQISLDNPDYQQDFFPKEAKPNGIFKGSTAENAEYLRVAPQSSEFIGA
T3 sequence (P00533 25-1210): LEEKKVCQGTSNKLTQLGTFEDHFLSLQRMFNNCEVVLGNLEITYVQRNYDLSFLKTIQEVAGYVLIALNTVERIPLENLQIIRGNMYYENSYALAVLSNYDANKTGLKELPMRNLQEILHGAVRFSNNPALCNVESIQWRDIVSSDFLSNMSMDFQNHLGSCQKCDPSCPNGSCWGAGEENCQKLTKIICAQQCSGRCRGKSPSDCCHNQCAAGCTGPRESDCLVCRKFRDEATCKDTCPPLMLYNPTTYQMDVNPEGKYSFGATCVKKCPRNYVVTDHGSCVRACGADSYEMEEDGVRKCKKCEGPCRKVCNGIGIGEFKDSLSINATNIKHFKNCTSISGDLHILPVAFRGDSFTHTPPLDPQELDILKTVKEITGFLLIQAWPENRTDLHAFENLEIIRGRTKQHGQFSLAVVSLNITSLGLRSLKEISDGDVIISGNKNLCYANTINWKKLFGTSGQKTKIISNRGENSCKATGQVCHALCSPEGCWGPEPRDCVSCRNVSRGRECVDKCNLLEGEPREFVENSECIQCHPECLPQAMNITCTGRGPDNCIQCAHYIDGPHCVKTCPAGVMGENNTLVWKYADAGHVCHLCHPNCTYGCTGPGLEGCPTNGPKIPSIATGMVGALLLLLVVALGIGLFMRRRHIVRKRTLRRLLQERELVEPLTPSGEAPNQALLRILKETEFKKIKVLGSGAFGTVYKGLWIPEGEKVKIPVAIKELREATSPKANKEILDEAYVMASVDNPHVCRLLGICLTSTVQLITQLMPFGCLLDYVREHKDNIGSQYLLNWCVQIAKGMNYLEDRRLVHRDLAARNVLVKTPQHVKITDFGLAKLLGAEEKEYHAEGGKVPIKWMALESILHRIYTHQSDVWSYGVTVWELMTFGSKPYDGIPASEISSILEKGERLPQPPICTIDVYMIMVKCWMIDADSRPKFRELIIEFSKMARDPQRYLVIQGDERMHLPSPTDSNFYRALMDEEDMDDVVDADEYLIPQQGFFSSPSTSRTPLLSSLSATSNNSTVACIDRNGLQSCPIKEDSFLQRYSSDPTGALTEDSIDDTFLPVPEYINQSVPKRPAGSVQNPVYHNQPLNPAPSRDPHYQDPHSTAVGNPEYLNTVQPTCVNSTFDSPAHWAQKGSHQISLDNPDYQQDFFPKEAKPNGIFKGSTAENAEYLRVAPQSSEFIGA

SMILES | IC50 [1] | IC50 [2] | IC50 [3] | IC50 [4]
C#Cc1c(-c2cc(F)ccc2Cl)c(=O)n(C)c2nc(Nc3ccc(N(C)CCN(C)C)cc3)ncc12 [Example 137, 6-(2-chloro-5-fluorophenyl)-2-[(4-{[2-(dimethylamino)ethyl](methyl)amino}phenyl)amino]-5-ethynyl-8-methylpyrido[2,3-d]pyrimidin-7-one] | 0.5 to 1 µM | < 0.5 µM | 1 to 3 µM | < 1 µM
C#Cc1c(-c2ccncc2Cl)c(=O)n(C)c2nc(Nc3ccc(N(C)CCN(C)C)cc3)ncc12 [Example 139, 6-(3-chloropyridin-4-yl)-2-[(4-{[2-(dimethylamino)ethyl](methyl)amino}phenyl)amino]-5-ethynyl-8-methylpyrido [2,3-d]pyrimidin-7-one] | 1 to 3 µM | 1 to 3 µM | > 3 µM | < 1 µM
C#Cc1c(Nc2ccccc2)c(=O)n(C)c2nc(Nc3ccc(N(C)CCN(C)C)cc3)ncc12 [Example 144, 2-[(4-{[2-(dimethylamino)ethyl](methyl)amino}phenyl)amino]-5-ethynyl-8-methyl-6-(phenylamino)pyrido[2,3-d]pyrimidin-7-one] | 1 to 3 µM | 1 to 3 µM | < 0.5 µM | < 1 µM
C#Cc1c(C2CC2)c(=O)n(C)c2nc(Nc3ccc(N4CCN(C)CC4)cc3)ncc12 [Example 148, 6-cyclopropyl-5-ethynyl-8-methyl-2-{[4-(4-methylpiperazin-1-yl)phenyl]amino}pyrido[2,3-d]pyrimidin-7-one] | > 3 µM | > 3 µM | > 3 µM | > 10 µM
C=Cc1cc(=O)n(-c2ccc(OC)cc2OC)c2nc(Nc3ccc(N(C)CCN(C)C)cc3)ncc12 [Example 155, 8-(2,4-dimethoxyphenyl)-2-[(4-{[2-(dimethylamino)ethyl](methyl)amino}phenyl)amino]-5-ethenylpyrido[2,3-d]pyrimidin-7-one] | > 3 µM | > 3 µM | > 3 µM | 1 to 10 µM
C=Cc1cc(=O)n(-c2cccc(OC)c2)c2nc(Nc3ccccc3OC)ncc12 [Example 156, 8-(3-Methoxyphenyl)-2-((2-methoxyphenyl)amino)-5-vinylpyrido[2,3-d]pyrimidin-7(8H)-one] | > 3 µM | > 3 µM | > 3 µM | > 10 µM
C=Cc1cc(=O)n(-c2ccc(OC)cc2)c2nc(Nc3ccccc3OC)ncc12 [Example 157, 8-(4-Methoxyphenyl)-2-((2-methoxyphenyl)amino)-5-vinylpyrido[2,3-d]pyrimidin-7(8H)-one] | > 3 µM | > 3 µM | > 3 µM | > 10 µM
C=Cc1c(-c2ccccc2Cl)c(=O)n(C)c2nc(Nc3ccc(N4CCN(C)CC4)cc3OC)ncc12 [Example 170, 6-(2-chlorophenyl)-5-ethenyl-2-{[2-methoxy-4-(4-methylpiperazin-1-yl)phenyl]amino}-8-methylpyrido[2,3-d]pyrimidin-7-one] | > 3 µM | > 3 µM | > 3 µM | > 10 µM
C=Cc1c(-c2ccccc2Cl)c(=O)n(C)c2nc(Nc3ccc(OCCN(C)C)cc3)ncc12 [Example 172, 6-(2-chlorophenyl)-2-({4-[2-(dimethylamino)ethoxy]phenyl}amino)-5-ethenyl-8-methylpyrido[2,3-d]pyrimidin-7-one] | > 3 µM | > 3 µM | > 3 µM | > 10 µM
C#Cc1c(C)c(=O)n(Cc2cnn(C)c2)c2nc(Nc3ccc(N4CCN(C)CC4)cc3)ncc12 [Example 180, 5-Ethynyl-6-methyl-2-{[4-(4-methylpiperazin-1-yl)phenyl]aminol}-8-[(1-methylpyrazol-4-yl)methyl]pyrido[2,3-d]pyrimidin-7-one] | 1 to 3 µM | 1 to 3 µM | > 3 µM | 1 to 10 µM
C#Cc1cc(=O)n(C2CCCC2)c2nc(Nc3cccc(CN4CC(CS(C)(=O)=O)C4)c3)ncc12 [Example 181] | > 3 µM | > 3 µM | > 3 µM | > 10 µM
C#Cc1cc(=O)n(C2CCCC2)c2nc(Nc3cccc(CN4CCC(CS(C)(=O)=O)C4)c3)ncc12 (stereo not shown) [Example 182] | > 3 µM | > 3 µM | > 3 µM | > 10 µM
C#Cc1cc(=O)n(C2CCCC2)c2nc(Nc3cccc(CN4CCC(CS(C)(=O)=O)CC4)c3)ncc12 [Example 183] | > 3 µM | > 3 µM | > 3 µM | > 10 µM
C#Cc1cc(=O)n(C2CCCC2)c2nc(Nc3cccc4c3CN(C)C4)ncc12 [Example 184, 8-Cyclopentyl-5-ethynyl-2-[(2-methvl-1,3-dihydroisoindol-4-yl)amino]pyrido[2,3-d]pyrimidin-7-one] | > 3 µM | > 3 µM | > 3 µM | 1 to 10 µM
C#Cc1cc(=O)n(C2CCCC2)c2nc(Nc3cccc4c3CCN(C)C4)ncc12 [Example 185, 8-Cyclopentyl-5-ethynyl-2-[(2-methyl-3,4-dihydro-1H-isoquinolin-5-yl)amino]pyrido[2,3-d]pyrimidin-7-one] | > 3 µM | > 3 µM | > 3 µM | > 10 µM
C#Cc1cc(=O)n2c3nc(ncc13)Nc1cccc(c1)OCCC2 [Example 186, 1^5-ethynyl-1^7,1^8-dihydro-4-oxa-2-aza-1(2,8)-pyrido[2,3-d]pyrimidina-3(1,3)-benzenacycloheptaphan-1^7-one] | > 3 µM | > 3 µM | > 3 µM | > 10 µM
C#Cc1cc(=O)n2c3nc(ncc13)Nc1cccc(c1)OC/C=C\C2 [Example 187, (Z)-1^5-ethynyl-1^7,1^8-dihydro-4-oxa-2-aza-1(2,8)-pyrido[2,3-d]pyrimidina-3(1,3)-benzenacyclooctaphan-6-en-1^7-one] | < 0.5 µM | 0.5 to 1 µM | > 3 µM | 1 to 10 µM

Now from value to molecule:

IC50 [1] | IC50 [2] | IC50 [3] | IC50 [4] | SMILES
> 3 µM | > 3 µM | > 3 µM | 1 to 10 µM | C#Cc1c(C)c(=O)n(C)c2nc(Nc3ccc(N4CCN(C)CC4)cc3)ncc12 [Example 149, 5-ethynyl-6,8-dimethyl-2-{[4-(4-methylpiperazin-1-yl)phenyl]amino}pyrido[2,3-d]pyrimidin-7-one]
> 3 µM | 1 to 3 µM | > 3 µM | 1 to 10 µM | C#Cc1c(-c2cccs2)c(=O)n(C)c2nc(Nc3ccc(N4CCN(C)CC4)cc3)ncc12 [Example 150, 5-ethynyl-8-methyl-2-{[4-(4-methylpiperazin-1-yl)phenyl]amino}-6-(thiophen-2-yl)pyrido[2,3-d]pyrimidin-7-one]
0.5 to 1 µM | 0.5 to 1 µM | 1 to 3 µM | 1 to 10 µM | C#Cc1c(C)c(=O)n(-c2ccccc2)c2nc(Nc3ccc(N4CCN(C)CC4)cc3)ncc12 [Example 151, 5-Ethynyl-6-methyl-2-{[4-(4-methylpiperazin-1-yl)phenyl]amino}-8-phenylpyrido[2,3-d]pyrimidin-7-one]
> 3 µM | > 3 µM | > 3 µM | > 10 µM | C#Cc1c(C)c(=O)n(Cc2cnoc2)c2nc(Nc3ccc(N4CCN(C)CC4)cc3)ncc12 [Example 175, 5-Ethynyl-6-methyl-2-{[4-(4-methylpiperazin-1-yl)phenyl]aminol}-8-(1,2-oxazol-4-ylmethyl)pyrido[2,3-d]pyrimidin-7-one]
1 to 3 µM | 1 to 3 µM | > 3 µM | < 1 µM | C#Cc1c(C)c(=O)n(Cc2cnco2)c2nc(Nc3ccc(N4CCN(C)CC4)cc3)ncc12 [Example 176, 5-Ethynyl-6-methvl-2-{[4-(4-methylpiperazin-1-yl)phenyl]aminol}-8-(1,3-oxazol-5-ylmethyl)pyrido[2,3-d]pyrimidin-7-one]
> 3 µM | > 3 µM | > 3 µM | 1 to 10 µM | C#Cc1c(C)c(=O)n(Cc2ncc[nH]2)c2nc(Nc3ccc(N4CCN(C)CC4)cc3)ncc12 [Example 177, 5-Ethynyl-8-(1H-imidazol-2-ylmethyl)-6-methyl-2-{[4-(4-methylpiperazin-1-yl)phenyl]amino}pyrido[2,3-d]pyrimidin-7-one]
0.5 to 1 µM | 0.5 to 1 µM | > 3 µM | < 1 µM | C#Cc1c(C)c(=O)n(Cc2ccccn2)c2nc(Nc3ccc(N4CCN(C)CC4)cc3)ncc12 [Example 178, 5-Ethynyl-6-methyl-2-{[4-(4-methylpiperazin-1-yl)phenyl]amino}-8-(pyridin-2-ylmethyl)pyrido[2,3-d]pyrimidin-7-one]
1 to 3 µM | 1 to 3 µM | > 3 µM | 1 to 10 µM | C#Cc1c(C)c(=O)n(Cc2ccncc2)c2nc(Nc3ccc(N4CCN(C)CC4)cc3)ncc12 [Example 179, 5-Ethynyl-6-methyl-2-{[4-(4-methylpiperazin-1-yl)phenyl]amino}-8-(pyridin-4-ylmethyl)pyrido[2,3-d]pyrimidin-7-one]

— patent US20260137703A1, “2-AMINO-PYRIDO[2,3-D]PYRIMIDIN-7(8H)-ONE AND 7-AMINO-1-PYRIMIDO[4,5-D]PYRIMIDIN-2(1 H)-ONE DERIVATIVES AS EGFR INHIBITORS FOR THE TREATMENT OF CANCER” (Cancer Research Technology Limited, priority 2022, published 2026)
